Laboratory results taken from patent US20120202799A1, “Condensed Azepine Derivatives As Bromodomain Inhibitors” (priority 2009, published 2012).

Target: T1, Bromodomain 2, 3 and 4 (BRD2, BRD3 and BRD4)
T1 construct: fused on or other part: six-His tag at the N-terminus
Assay: Fluorescence Anisotropy Binding Assay
Design: species or system Human
Details: result stated for one or more of BRD2, BRD3 and BRD4, target not specified per compound
Procedure: All data was normalized to the mean of 16 high and 16 low control wells on each plate. A four parameter curve fit of the following form was then applied:
y=a+((b−a)/(1+(10̂x/10̂c)̂d)
The His-tagged Bromodomain was extracted from E. coli cells using 0.1 mg/ml lysozyme and sonication. […] Further purification was completed by Superdex 200 prep grade size exclusion column. Purified protein was stored at −80 C in 20 mM HEPES pH 7.5 and 100 mM NaCl.

Question: Which “pIC50 in one or more of the BRD2, BRD3 and BRD4 assays” value does the source give for `Cc1nnc2n1-c1ccccc1C(c1ccccc1)=NC2NC(=O)OCc1ccco1` (centres unmarked) [Example 44, 2-furanylmethyl (1-methyl-6-phenyl-4H-[1,2,4]triazolo[4,3-a][1,4]benzodiazepin-4-yl)carbamate] here?
Answer: ≥ 5.0

Test system: TNFα levels in LPS stimulated whole blood
Assay: LPS Stimulated Whole Blood Measuring TNFα Levels Assay
Type: cell-based
Details: LPS final concentration 200 ng/ml, 24 hours at 37 degrees, TNFα by immunoassay, read-out: pIC50 (TNFα levels) (converted)
Procedure: Activation of monocytic cells by agonists of toll-like receptors such as bacterial lipopolysaccharide (LPS) results in production of key inflammatory mediators including TNFα. Such pathways are widely considered to be central to the pathophysiology of a range of auto-immune and inflammatory disorders.
Compounds to be tested are diluted to give a range of appropriate concentrations and 1 ul of the dilution stocks is added to wells of a 96 plate. Following addition of whole blood (130 μl) the plates are incubated at 37 degrees (5% CO2) for 30 min before the addition of 10 ul of 2.8 ug/ml LPS, diluted in complete RPMI 1640 (final concentration=200 ng/ml), to give a total volume of 140 μl per well. After further incubation for 24 hours at 37 degrees, 140 μl of PBS are added to each well. The plates are sealed, shaken for 10 minutes and then centrifuged (2500 rpm×10 min). 100 μl of the supernatant are removed and TNFα levels assayed by immunoassay (typically by MesoScale Discovery technology) either immediately or following storage at −20 degrees. Dose response curves for each compound was generated from the data and an IC50 value was calculated.

Question: Which IC50 does the source give for `Cc1nnc2n1-c1ccccc1C(c1ccccc1)=NC2NC(=O)OCc1ccccc1` (single isomer, unassigned; (+)) [Example 27, (+)-phenylmethyl (1-methyl-6-phenyl-4H-[1,2,4]triazolo[4,3-a][1,4]benzodiazepin-4-yl)carbamate] here?
Answer: ≤ 10 µM

Question: Which IC50 does the source give for `CCOC(=O)NC1N=C(c2ccc(Cl)cc2)c2ccccc2-n2c(C)nnc21` (single isomer, unassigned; (+)) [Example 28, (+)-ethyl [6-(4-chlorophenyl)-1-methyl-4H-[1,2,4]triazolo[4,3-a][1,4]benzodiazepin-4-yl]carbamate] here?
Answer: ≤ 10 µM

Question: With `CCOC(=O)NC1N=C(c2ccccc2)c2ccccc2-n2c(C)nnc21` (single isomer, unassigned; (+)) [Example 32, (+)-ethyl 1-methyl-6-phenyl-4H-[1,2,4]triazolo[4,3-a][1,4]benzodiazepin-4-ylcarbamate] as the compound, how does the IC50 read?
Answer: ≤ 10 µM

Question: Which IC50 does the source give for `COc1ccc2cc(C(=O)NC3N=C(c4ccccc4)c4ccccc4-n4c(C)nnc43)[nH]c2c1` (centres unmarked) [Example 53, 6-(methyloxy)-N-(1-methyl-6-phenyl-4H-[1,2,4]-triazolo[4,3-a][1,4]benzodiazepin-4-yl)-1H-indole-2-carboxamide] here?
Answer: ≤ 10 µM

Question: For `Cc1nnc2n1-c1ccccc1C(c1ccccc1)=NC2NC(=O)/C=C/c1ccccc1` (centres unmarked) [Example 64, (2E)-N-(1-methyl-6-phenyl-4H-[1,2,4]triazolo[4,3-a][1,4]benzodiazepin-4-yl)-3-phenyl-2-propenamide], which IC50 is on record?
Answer: ≤ 10 µM

Question: With `Cc1nnc2n1-c1ccccc1C(c1ccccc1)=NC2NC(=O)/C=C/c1ccc(F)cc1` (centres unmarked) [Example 65, (2E)-3-(4-fluorophenyl)-N-(1-methyl-6-phenyl-4H-[1,2,4]triazolo[4,3-a][1,4]benzodiazepin-4-yl)-2-propenamide] as the compound, how does the IC50 read?
Answer: ≤ 10 µM

Test system: not given
Assay: not given
Details: not given

Question: Which melting point does the source give for `COc1ccc(C2=NC(NC(=O)Nc3ccc(C(=O)c4ccccc4)cc3)c3nnc(C)n3-c3ccccc32)cc1` (centres unmarked) here?
Answer: 225 °C

Question: For `Cc1nnc2n1-c1ccc(Br)cc1C(c1ccccc1F)=NC2NC(=O)OCc1ccccc1` (centres unmarked) [Example 17, phenylmethyl [8-bromo-6-(2-fluorophenyl)-1-methyl-4H-[1,2,4]triazolo[4,3-a][1,4]benzodiazepin-4-yl]carbamate], which melting point is on record?
Answer: 160 to 170 °C

Question: With `COc1ccc2cc(C(=O)NC3N=C(c4ccccc4)c4ccccc4-n4c(C)nnc43)[nH]c2c1` (centres unmarked) [Example 53, 6-(methyloxy)-N-(1-methyl-6-phenyl-4H-[1,2,4]-triazolo[4,3-a][1,4]benzodiazepin-4-yl)-1H-indole-2-carboxamide] as the compound, how does the melting point read?
Answer: 160 to 170 °C

Question: With `Cc1nnc2n1-c1ccccc1C(c1ccccc1)=NC2NC(=O)Nc1ccccc1` (centres unmarked) [Example 70, N-(1-methyl-6-phenyl-4H-[1,2,4]triazolo[4,3-a][1,4]benzodiazepin-4-yl)-N′-phenyl urea] as the compound, how does the melting point read?
Answer: > 260 °C
